Assay results: patent US20090093420A1, “PROCESSES FOR THE PREPARATION OF AZITHROMYCIN” (WOCKHARDT LIMITED, priority 2006, published 2009)

What was measured:
[1] = stability study of anhydrous azithromycin, normal storage at 25±2° C. at 60±5% relative humidity; format: physicochemical
[2] = accelerated stability study of anhydrous azithromycin, storage at 40±2° C. at 75±5% relative humidity; format: physicochemical
[3] = after 12 months of storage at 25±2° C. at 60±5% relative humidity
[4] = after 3 months of storage at 40±2° C. at 75±5% relative humidity

SMILES: CCC1OC(=O)C(C)C(O[C@H]2C[C@@](C)(OC)[C@@H](O)C(C)O2)C(C)[C@@H](OC2OC(C)CC(N(C)C)[C@H]2O)[C@@](C)(O)C[C@@H](C)CN(C)[C@H](C)[C@@H](O)[C@]1(C)O (stereo partly drawn) [anhydrous azithromycin, (2R,3S,4R,5R,5R,10R,11R,12S,13S,14R)-13-[(2,6-dideoxy-3-C-methyl-3-O-methyl-a-L-ribo-hexopyranosyl)oxy]-2-ethyl-3,4,10-trihydroxy-3,5,6,8,10,12,14-heptamethyl-11-[[3,4,6-trideoxy-3-(dimethylamino)-b-D-xylo-hexopyranosyl]oxy]-1-oxa-6-azacyclopentadecan-15-one]
- moisture content after storage [1, 3]: ≤ 0.6%
- purity by HPLC after storage [1, 3]: more than 99%
- time for which the form is stable ([1]; normal stability studies): more than 18 months
- change in the related substance content on storage ([1]; stored at 25±2° C. at 60±5% relative humidity): no change
- time for which the form is stable ([2]; accelerated stability studies): more than 3 months
- moisture content after storage [2, 4]: ≤ 0.6%
- purity by HPLC after storage [2, 4]: more than 98%
- change in the related substance content on storage ([2]; stored at 40±2° C. at 75±5% relative humidity): no change
